Test results taken from patent US6737383B1, “Herbicidal oxadiazolidines” (priority 1999, dated 2004).

Experiments:
bedstraw = test: Test B pre/postemergence bedstraw; assay type: in vivo, Galium aparine
From the text: (§1) Seeds of bedstraw (Galium aparine), blackgrass (Alopecurus myosuroides), surinam grass (Brachiaria decumbens), cocklebur (Xanthium strumarium), corn (Zea mays), crabgrass (Digitaria sanguinalis), giant foxtail (Setaria faberii), morningglory (Ipomoea hederacea), pigweed (Amaranthus retroflexus), rape (Brassica napus), soybean (Glycine max), sugar beet (Beta vulgaris), velvetleaf (Abutilon theophrasti), wheat (Triticum aestivum), wild oat (Avena fatua) and purple nutsedge (Cyperus rotundus) tubers were planted and treated preemnergence with test chemicals formulated in a non-phytotoxic solvent mixture which included a surfactant.
(§2) At the same time, these crop and weed species were also treated with postemergence applications of test chemicals formulated in the same manner. Plants ranged in height from 2 to 18 cm (1- to 4-leaf stage) for postemergence treatments. Plant species in the flood test consisted of rice (Oryza sativa), smallflower flatsedge (Cyperus difformis), duck salad (Heteranthera limosa) and bamyardgrass (Echinochloa crus-galli) grown to the 2-leaf stage for testing. Treated plants and controls were maintained in a greenhouse for twelve to sixteen days, after which all species were compared to controls and visually evaluated. Plant response ratings, summarized in Table B, are based on a scale of 0 to 10 where 0 is no effect and 10 is complete control. A dash (−) response means no test result.

blackgrass = test: Test B pre/postemergence blackgrass; assay type: in vivo, Alopecurus myosuroides
From the text: as §1, §2

surinam grass = test: Test B pre/postemergence surinam grass; assay type: in vivo, Brachiaria decumbens
From the text: as §1, §2

cocklebur = test: Test B pre/postemergence cocklebur; assay type: in vivo, Xanthium strumarium
From the text: as §1, §2

corn = test: Test B pre/postemergence corn; assay type: in vivo, Zea mays
From the text: as §1, §2

crabgrass = test: Test B pre/postemergence crabgrass; assay type: in vivo, Digitaria sanguinalis
From the text: as §1, §2

giant foxtail = test: Test B pre/postemergence giant foxtail; assay type: in vivo, Setaria faberii
From the text: as §1, §2

morningglory = test: Test B pre/postemergence morningglory; assay type: in vivo, Ipomoea hederacea
From the text: as §1, §2

pigweed = test: Test B pre/postemergence pigweed; assay type: in vivo, Amaranthus retroflexus
From the text: as §1, §2

rape = test: Test B pre/postemergence rape; assay type: in vivo, Brassica napus
From the text: as §1, §2

soybean = test: Test B pre/postemergence soybean; assay type: in vivo, Glycine max
From the text: as §1, §2

sugar beet = test: Test B pre/postemergence sugar beet; assay type: in vivo, Beta vulgaris
From the text: as §1, §2

velvetleaf = test: Test B pre/postemergence velvetleaf; assay type: in vivo, Abutilon theophrasti
From the text: as §1, §2

wheat = test: Test B pre/postemergence wheat; assay type: in vivo, Triticum aestivum
From the text: as §1, §2

wild oat = test: Test B pre/postemergence wild oat; assay type: in vivo, Avena fatua
From the text: as §1, §2

purple nutsedge = test: Test B pre/postemergence purple nutsedge; assay type: in vivo, Cyperus rotundus
From the text: as §1, §2

[1] = Preemergence, Rate 62 g/ha, scale of 0 to 10 where 0 is no effect and 10 is complete control
[2] = Preemergence, Rate 125 g/ha, scale of 0 to 10 where 0 is no effect and 10 is complete control
[3] = Preemergence, Rate 250 g/ha, scale 0 (no effect) to 10 (complete control)
[4] = Rate 500 g/ha, Preemergence, scale 0 to 10 (0 no effect, 10 complete control)
[5] = Postemergence, Rate 125 g/ha, scale of 0 to 10 where 0 is no effect and 10 is complete control
[6] = Preemergence, Rate 62 g/ha, scale 0 to 10 (0 no effect, 10 complete control)
[7] = Preemergence, Rate 125 g/ha, 0 is no effect, 10 is complete control
[8] = Preemergence, Rate 250 g/ha, scale 0 to 10, 0 is no effect, 10 is complete control
[9] = Preemergence, Rate 500 g/ha, scale 0 to 10 (0 no effect, 10 complete control)
[10] = Rate 62 g/ha, Postemergence, scale of 0 to 10 where 0 is no effect and 10 is complete control
[11] = Rate 250 g/ha, Postemergence, scale 0 to 10, 0 is no effect, 10 is complete control
[12] = Rate 500 g/ha, Postemergence, scale 0 to 10

CC(C)N(C(=O)n1oc(=O)n(C(C)C2=NOCC2)c1=O)c1ccc(F)cc1F (racemic) [Compound 730]
Bedstraw plant response rating (bedstraw; [1]): 0 | Plant response rating, Bedstraw (bedstraw; [2]): 0 | Bedstraw plant response rating (bedstraw; [3]): 0 | Bedstraw plant response rating (bedstraw; [4]): 4 | Blackgrass plant response rating (blackgrass; [1]): 6 | Plant response rating, Blackgrass (blackgrass; [2]): 9 | Blackgrass plant response rating (blackgrass; [3]): 10 | Blackgrass plant response rating (blackgrass; [4]): 10 | B. signalgrass plant response rating (surinam grass; [1]): 0 | Plant response rating, B. signalgrass (surinam grass; [2]): 0 | B. signalgrass plant response rating (surinam grass; [3]): 7 | B. signalgrass plant response rating (surinam grass; [4]): 9 | Cocklebur plant response rating (cocklebur; [1]): 0 | Plant response rating, Cocklebur (cocklebur; [2]): 0 | Cocklebur plant response rating (cocklebur; [3]): 0 | Cocklebur plant response rating (cocklebur; [4]): 0 | Corn plant response rating (corn; [1]): 0 | Plant response rating, Corn (corn; [2]): 3 | Corn plant response rating (corn; [3]): 4 | Corn plant response rating (corn; [4]): 9 | Crabgrass plant response rating (crabgrass; [1]): 9 | Plant response rating, Crabgrass (crabgrass; [2]): 9 | Crabgrass plant response rating (crabgrass; [3]): 9 | Crabgrass plant response rating (crabgrass; [4]): 10 | Giant foxtail plant response rating (giant foxtail; [1]): 10 | Plant response rating, Giant foxtail (giant foxtail; [2]): 10 | Giant foxtail plant response rating (giant foxtail; [3]): 10 | Giant foxtail plant response rating (giant foxtail; [4]): 10 | Morningglory plant response rating (morningglory; [1]): 0 | Plant response rating, Morningglory (morningglory; [2]): 0 | Morningglory plant response rating (morningglory; [3]): 0 | Morningglory plant response rating (morningglory; [4]): 2 | Redroot pigweed plant response rating (pigweed; [1]): 6 | Plant response rating, Redroot pigweed (pigweed; [2]): 9 | Redroot pigweed plant response rating (pigweed; [3]): 10 | Redroot pigweed plant response rating (pigweed; [4]): 10 | Rape plant response rating (rape; [1]): 0 | Plant response rating, Rape (rape; [2]): 0 | Rape plant response rating (rape; [3]): 2 | Rape plant response rating (rape; [4]): 7 | Soybean plant response rating (soybean; [1]): 0 | Plant response rating, Soybean (soybean; [2]): 0 | Soybean plant response rating (soybean; [3]): 2 | Soybean plant response rating (soybean; [4]): 3 | Sugarbeets plant response rating (sugar beet; [1]): 0 | Plant response rating, Sugarbeets (sugar beet; [2]): 2 | Sugarbeets plant response rating (sugar beet; [3]): 4 | Sugarbeets plant response rating (sugar beet; [4]): 7 | Velvetleaf plant response rating (velvetleaf; [1]): 0 | Plant response rating, Velvetleaf (velvetleaf; [2]): 2 | Velvetleaf plant response rating (velvetleaf; [3]): 6 | Velvetleaf plant response rating (velvetleaf; [4]): 6 | Wheat plant response rating (wheat; [1]): 0 | Plant response rating, Wheat (wheat; [2]): 0 | Wheat plant response rating (wheat; [3]): 0 | Wheat plant response rating (wheat; [4]): 0 | Wild oats plant response rating (wild oat; [1]): 0 | Plant response rating, Wild oats (wild oat; [2]): 4 | Wild oats plant response rating (wild oat; [3]): 7 | Wild oats plant response rating (wild oat; [4]): 9 | Nutsedge plant response rating (purple nutsedge; [1]): 0 | Plant response rating, Nutsedge (purple nutsedge; [2]): 0 | Nutsedge plant response rating (purple nutsedge; [3]): 3 | Nutsedge plant response rating (purple nutsedge; [4]): 3

CC(C)N(C(=O)n1oc(=O)n(C(C)c2ccccc2)c1=O)c1ccc(F)cc1 (centres unmarked) [Compound 134]
Bedstraw plant response rating (bedstraw; [5]): 4 | Bedstraw plant response rating (bedstraw; [6]): 0 | Bedstraw plant response rating (0 to 10 scale) (bedstraw; [7]): 0 | Bedstraw plant response rating (bedstraw; [8]): 0 | Bedstraw plant response rating (bedstraw; [9]): 3 | Bedstraw plant response rating (bedstraw; [10]): 4 | Plant response rating, Bedstraw (bedstraw; [11]): 4 | Blackgrass plant response rating (blackgrass; [5]): 0 | Blackgrass plant response rating (blackgrass; [6]): 0 | Blackgrass plant response rating (0 to 10 scale) (blackgrass; [7]): 0 | Blackgrass plant response rating (blackgrass; [8]): 2 | Blackgrass plant response rating (blackgrass; [9]): 2 | Blackgrass plant response rating (blackgrass; [10]): 0 | Plant response rating, Blackgrass (blackgrass; [11]): 0 | Blackgrass plant response rating (blackgrass; [12]): 7 | B. signalgrass plant response rating (surinam grass; [5]): 0 | B. signalgrass plant response rating (surinam grass; [6]): 0 | B. signalgrass plant response rating (0 to 10 scale) (surinam grass; [7]): 2 | B. signalgrass plant response rating (surinam grass; [8]): 6 | B. signalgrass plant response rating (surinam grass; [9]): 8 | B. signalgrass plant response rating (surinam grass; [10]): 0 | Plant response rating, B. signalgrass (surinam grass; [11]): 0 | B. signalgrass plant response rating (surinam grass; Rate 500 g/ha, Postemergence, scale of 0 to 10 where 0 is no effect and 10 is complete control): 2 | Cocklebur plant response rating (cocklebur; [5]): 0 | Cocklebur plant response rating (cocklebur; [6]): 0 | Cocklebur plant response rating (0 to 10 scale) (cocklebur; [7]): 0 | Cocklebur plant response rating (cocklebur; [8]): 0 | Cocklebur plant response rating (cocklebur; [9]): 0 | Cocklebur plant response rating (cocklebur; [10]): 0 | Plant response rating, Cocklebur (cocklebur; [11]): 0 | Cocklebur plant response rating (cocklebur; [12]): 1 | Corn plant response rating (corn; [5]): 0 | Corn plant response rating (corn; [6]): 0 | Corn plant response rating (0 to 10 scale) (corn; [7]): 0 | Corn plant response rating (corn; [8]): 0 | Corn plant response rating (corn; [9]): 0 | Corn plant response rating (corn; [10]): 0 | Plant response rating, Corn (corn; [11]): 0 | Corn plant response rating (corn; [12]): 0 | Crabgrass plant response rating (crabgrass; [5]): 0 | Crabgrass plant response rating (crabgrass; [6]): 2 | Crabgrass plant response rating (0 to 10 scale) (crabgrass; [7]): 6 | Crabgrass plant response rating (crabgrass; [8]): 9 | Crabgrass plant response rating (crabgrass; [9]): 9 | Crabgrass plant response rating (crabgrass; [10]): 0 | Plant response rating, Crabgrass (crabgrass; [11]): 4 | Crabgrass plant response rating (crabgrass; [12]): 9 | Giant foxtail plant response rating (giant foxtail; [5]): 0 | Giant foxtail plant response rating (giant foxtail; [6]): 6 | Giant foxtail plant response rating (0 to 10 scale) (giant foxtail; [7]): 9 | Giant foxtail plant response rating (giant foxtail; [8]): 10 | Giant foxtail plant response rating (giant foxtail; [9]): 10 | Giant foxtail plant response rating (giant foxtail; [10]): 0 | Plant response rating, Giant foxtail (giant foxtail; [11]): 0 | Giant foxtail plant response rating (giant foxtail; [12]): 3 | Morningglory plant response rating (morningglory; [5]): 6 | Morningglory plant response rating (morningglory; [6]): 0 | Morningglory plant response rating (0 to 10 scale) (morningglory; [7]): 0 | Morningglory plant response rating (morningglory; [8]): 0 | Morningglory plant response rating (morningglory; [9]): 1 | Morningglory plant response rating (morningglory; [10]): 5 | Plant response rating, Morningglory (morningglory; [11]): 8 | Morningglory plant response rating (morningglory; [12]): 8 | Redroot pigweed plant response rating (pigweed; [5]): 0 | Redroot pigweed plant response rating (pigweed; [6]): 0 | Redroot pigweed plant response rating (0 to 10 scale) (pigweed; [7]): 0 | Redroot pigweed plant response rating (pigweed; [8]): 0 | Redroot pigweed plant response rating (pigweed; [9]): 2 | Redroot pigweed plant response rating (pigweed; [10]): 0 | Plant response rating, Redroot pigweed (pigweed; [11]): 0 | Redroot pigweed plant response rating (pigweed; [12]): 0 | Rape plant response rating (rape; [5]): 0 | Rape plant response rating (rape; [6]): 0 | Rape plant response rating (0 to 10 scale) (rape; [7]): 0 | Rape plant response rating (rape; [8]): 0 | Rape plant response rating (rape; [9]): 6 | Rape plant response rating (rape; [10]): 0 | Plant response rating, Rape (rape; [11]): 0 | Rape plant response rating (rape; [12]): 0 | Soybean plant response rating (soybean; [5]): 1 | Soybean plant response rating (soybean; [6]): 0 | Soybean plant response rating (0 to 10 scale) (soybean; [7]): 0 | Soybean plant response rating (soybean; [8]): 0 | Soybean plant response rating (soybean; [9]): 0 | Soybean plant response rating (soybean; [10]): 1 | Plant response rating, Soybean (soybean; [11]): 1 | Soybean plant response rating (soybean; [12]): 1 | Sugarbeets plant response rating (sugar beet; [5]): 0 | Sugarbeets plant response rating (sugar beet; [6]): 0 | Sugarbeets plant response rating (0 to 10 scale) (sugar beet; [7]): 2 | Sugarbeets plant response rating (sugar beet; [8]): 4 | Sugarbeets plant response rating (sugar beet; [9]): 7 | Sugarbeets plant response rating (sugar beet; [10]): 0 | Plant response rating, Sugarbeets (sugar beet; [11]): 0 | Sugarbeets plant response rating (sugar beet; [12]): 2 | Velvetleaf plant response rating (velvetleaf; [5]): 0 | Velvetleaf plant response rating (velvetleaf; [6]): 0 | Velvetleaf plant response rating (0 to 10 scale) (velvetleaf; [7]): 0 | Velvetleaf plant response rating (velvetleaf; [8]): 2 | Velvetleaf plant response rating (velvetleaf; [9]): 7 | Velvetleaf plant response rating (velvetleaf; [10]): 0 | Plant response rating, Velvetleaf (velvetleaf; [11]): 0 | Velvetleaf plant response rating (velvetleaf; [12]): 4 | Wheat plant response rating (wheat; [5]): 0 | Wheat plant response rating (wheat; [6]): 0 | Wheat plant response rating (0 to 10 scale) (wheat; [7]): 0 | Wheat plant response rating (wheat; [8]): 0 | Wheat plant response rating (wheat; [9]): 0 | Wheat plant response rating (wheat; [10]): 0 | Plant response rating, Wheat (wheat; [11]): 0 | Wheat plant response rating (wheat; [12]): 0 | Wild oats plant response rating (wild oat; [5]): 0 | Wild oats plant response rating (wild oat; [6]): 0 | Wild oats plant response rating (0 to 10 scale) (wild oat; [7]): 0 | Wild oats plant response rating (wild oat; [8]): 2 | Wild oats plant response rating (wild oat; [9]): 2 | Wild oats plant response rating (wild oat; [10]): 0 | Plant response rating, Wild oats (wild oat; [11]): 0 | Wild oats plant response rating (wild oat; [12]): 0 | Nutsedge plant response rating (purple nutsedge; [5]): 0 | Nutsedge plant response rating (purple nutsedge; [6]): 0 | Nutsedge plant response rating (0 to 10 scale) (purple nutsedge; [7]): 0 | Nutsedge plant response rating (purple nutsedge; [8]): 0 | Nutsedge plant response rating (purple nutsedge; [9]): 0 | Nutsedge plant response rating (purple nutsedge; [10]): 0 | Plant response rating, Nutsedge (purple nutsedge; [11]): 0 | Nutsedge plant response rating (purple nutsedge; [12]): 0
